Assays:
Assay in all cases: TMT LC-MSMS of 11-labelled proteins
Assay type in all cases: cell-based
[1] = molecular target: 60 kDa heat shock protein, mitochondrial (HSPD1) (Homo sapiens, UniProt P10809)
[2] = molecular target: GTP-binding nuclear protein RAN (RAN) (Homo sapiens, UniProt P62826)
[3] = molecular target: Prohibitin-2 (PHB2) (Homo sapiens, UniProt Q99623); details: SKBR3 cells; for Abundance Ratio: (11) / (DMSO): 11 0.5 µM 3 h vs DMSO; for Abundance Ratio: (11) / (11 with PU-H71): 11 0.5 µM 3 h vs with PU-H71 10 µM
Prohibitin-2 (PHB2), sequence (Q99623 whole entry): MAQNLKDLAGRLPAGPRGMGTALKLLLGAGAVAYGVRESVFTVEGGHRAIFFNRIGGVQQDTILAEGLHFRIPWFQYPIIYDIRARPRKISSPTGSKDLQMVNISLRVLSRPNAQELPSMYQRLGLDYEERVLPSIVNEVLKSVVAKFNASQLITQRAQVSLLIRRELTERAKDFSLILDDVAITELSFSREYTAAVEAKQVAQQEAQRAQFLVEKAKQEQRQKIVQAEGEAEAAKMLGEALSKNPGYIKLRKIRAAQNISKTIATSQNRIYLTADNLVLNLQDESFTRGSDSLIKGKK
Prohibitin-2 (PHB2), sequence (P35232 whole entry partner): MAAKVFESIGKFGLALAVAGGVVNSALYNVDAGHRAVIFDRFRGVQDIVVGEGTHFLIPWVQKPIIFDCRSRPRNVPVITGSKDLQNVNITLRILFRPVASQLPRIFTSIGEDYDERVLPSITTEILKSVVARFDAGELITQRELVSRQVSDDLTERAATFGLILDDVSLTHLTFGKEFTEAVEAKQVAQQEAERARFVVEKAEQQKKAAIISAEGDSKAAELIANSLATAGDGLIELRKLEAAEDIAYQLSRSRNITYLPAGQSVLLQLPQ

[4] = molecular target: Protein disulfide-isomerase (P4HB) (Homo sapiens, UniProt P07237)
Protein disulfide-isomerase (P4HB), sequence (P07237 18-508): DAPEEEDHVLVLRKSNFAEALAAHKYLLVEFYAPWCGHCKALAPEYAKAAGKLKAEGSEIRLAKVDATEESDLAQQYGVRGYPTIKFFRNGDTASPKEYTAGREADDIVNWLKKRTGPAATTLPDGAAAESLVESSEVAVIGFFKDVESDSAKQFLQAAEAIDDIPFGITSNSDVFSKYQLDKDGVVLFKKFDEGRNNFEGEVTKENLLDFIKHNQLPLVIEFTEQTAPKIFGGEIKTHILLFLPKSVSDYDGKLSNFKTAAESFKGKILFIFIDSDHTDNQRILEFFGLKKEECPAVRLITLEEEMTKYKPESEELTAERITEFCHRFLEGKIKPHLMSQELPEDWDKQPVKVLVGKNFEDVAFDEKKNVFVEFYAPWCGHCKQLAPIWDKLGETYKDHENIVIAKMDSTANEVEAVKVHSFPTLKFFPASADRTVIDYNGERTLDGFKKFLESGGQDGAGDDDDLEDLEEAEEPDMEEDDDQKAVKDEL

[5] = sheet Merged, SKBR3 cells, 11 0.5 µM 3 h vs DMSO
[6] = sheet Merged, SKBR3 cells, 11 0.5 µM 3 h vs with PU-H71 10 µM
[7] = sheet Exp1, SKBR3 cells, 11 0.5 µM 3 h vs DMSO
[8] = sheet Exp1, SKBR3 cells, 11 0.5 µM 3 h vs with PU-H71 10 µM

60 kDa heat shock protein, mitochondrial (HSPD1), sequence (P10809 27-573): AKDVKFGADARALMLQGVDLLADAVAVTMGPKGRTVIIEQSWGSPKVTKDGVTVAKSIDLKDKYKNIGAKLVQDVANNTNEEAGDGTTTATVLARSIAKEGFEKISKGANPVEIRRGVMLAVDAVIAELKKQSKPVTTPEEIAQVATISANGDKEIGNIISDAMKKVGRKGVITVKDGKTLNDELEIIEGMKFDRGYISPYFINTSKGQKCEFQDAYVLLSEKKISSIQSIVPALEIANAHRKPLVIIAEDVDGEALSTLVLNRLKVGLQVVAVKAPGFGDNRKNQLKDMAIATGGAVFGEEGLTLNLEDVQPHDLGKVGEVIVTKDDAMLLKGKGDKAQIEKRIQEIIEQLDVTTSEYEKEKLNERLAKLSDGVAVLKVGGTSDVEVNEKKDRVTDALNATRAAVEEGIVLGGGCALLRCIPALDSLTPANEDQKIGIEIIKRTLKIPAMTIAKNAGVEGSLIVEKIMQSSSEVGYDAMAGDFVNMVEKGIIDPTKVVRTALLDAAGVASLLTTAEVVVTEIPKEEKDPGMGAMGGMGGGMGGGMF

Abundance Ratio: (11) / (11 with PU-H71) ([1]; Exp3, HSPD1): 0.857
Abundance Ratio: (11) / (DMSO) ([1]; Exp3, HSPD1): 2.057
Abundances (Grouped): 11 ([1]; Exp3, HSPD1): 57.6
Abundances (Grouped): 11 with PU-H71 ([1]; Exp3, HSPD1): 67.2
Abundance Ratio: (11) / (11 with PU-H71) ([1]; sheet Exp2, HSPD1): 1.035
Abundance Ratio: (11) / (DMSO) ([1]; sheet Exp2, HSPD1): 2.527
Abundances (Grouped): 11 ([1]; sheet Exp2, HSPD1): 61.4
Abundances (Grouped): 11 with PU-H71 ([1]; sheet Exp2, HSPD1): 59.3
Abundance Ratio: (11) / (DMSO) [1, 5]: 2.28
Abundance Ratio: (11) / (11 with PU-H71) [1, 6]: 0.942
Abundance Ratio: (11) / (11 with PU-H71) ([2]; Exp3, RAN): 0.98
Abundance Ratio: (11) / (DMSO) ([2]; Exp3, RAN): 2.764
Abundances (Grouped): 11 ([2]; Exp3, RAN): 43.4
Abundances (Grouped): 11 with PU-H71 ([2]; Exp3, RAN): 44.3
Abundance Ratio: (11) / (DMSO) [2, 7]: 2.108
Abundance Ratio: (11) / (11 with PU-H71) [2, 8]: 0.767
Abundance Ratio: (11) / (11 with PU-H71) ([2]; sheet Exp2, RAN): 0.778
Abundance Ratio: (11) / (DMSO) ([2]; sheet Exp2, RAN): 2.161
Abundances (Grouped): 11 ([2]; sheet Exp2, RAN): 78
Abundances (Grouped): 11 with PU-H71 ([2]; sheet Exp2, RAN): 100.3
Abundance Ratio: (11) / (DMSO) [2, 5]: 2.599
Abundance Ratio: (11) / (11 with PU-H71) [2, 6]: 0.946
Abundance Ratio: (11) / (DMSO) ([3]; sheet Exp1): 1.815
Abundance Ratio: (11) / (11 with PU-H71) ([3]; sheet Exp1): 0.795
Abundance Ratio: (11) / (DMSO) ([3]; sheet Merged): 1.815
Abundance Ratio: (11) / (11 with PU-H71) ([3]; sheet Merged): 0.795
Abundance Ratio: (11) / (11 with PU-H71) ([4]; Exp3, P4HB): 0.934
Abundance Ratio: (11) / (DMSO) ([4]; Exp3, P4HB): 3.442
Abundances (Grouped): 11 ([4]; Exp3, P4HB): 191.7
Abundances (Grouped): 11 with PU-H71 ([4]; Exp3, P4HB): 205.3
Abundance Ratio: (11) / (DMSO) [4, 7]: 2.885
Abundance Ratio: (11) / (11 with PU-H71) [4, 8]: 0.887
Abundance Ratio: (11) / (11 with PU-H71) ([4]; sheet Exp2, P4HB): 0.87
Abundance Ratio: (11) / (DMSO) ([4]; sheet Exp2, P4HB): 2.206
Abundances (Grouped): 11 ([4]; sheet Exp2, P4HB): 186
Abundances (Grouped): 11 with PU-H71 ([4]; sheet Exp2, P4HB): 213.9
Abundance Ratio: (11) / (DMSO) [4, 5]: 2.274
Abundance Ratio: (11) / (11 with PU-H71) [4, 6]: 0.896
SMILES: CC(=O)Oc1ccc2c(c1)Oc1cc(OC(C)=O)ccc1C21OC(=O)c2cc(C(=O)NCCOCCOCCNC(=O)CCCC(=O)N(CC#N)S(=O)(=O)c3ccc(C(=O)NCCCn4c(Sc5cc6c(cc5I)OCO6)nc5c(N)ncnc54)cc3)ccc21 [compound 11]
